Test results: paper PMC7004565, “Nucleotide inhibition of the pancreatic ATP-sensitive K^+ channel explored with patch-clamp fluorometry” (eLife, 2020)

Experiments:
Kir6.2*-GFP + SUR-K205A = target: T1, Kir6.2*-GFP + SUR-K205A (Homo sapiens, UniProt Q14654); experiment: ANAP fluorescence quenching in excised patches (patch-clamp fluorometry); assay type: binding; conditions: excised patches (PCF), Hill fit
T1 construct: ANAP labelling is specific and only full-length Kir6.2 is expressed at the cell membrane; expressed in transfected cells; host or cells: HEK-293T
Excerpt: (§1) We introduced a charge neutralization (alanine, K205A) and a charge reversal (glutamate, K205E) mutation at this position and measured simultaneous nucleotide binding and current inhibition with PCF (Figure 4B,C,D). The binding and inhibition curves for TNP-ATP almost perfectly overlaid for the SUR1-K205A mutant (Figure 4C). The same was also true for SUR1-K205E (Figure 4D). Data were fit with the MWC-type model as before. […] This was reflected by a decrease in the estimated KA for TNP-ATP, which correlated with the degree of conservation of the mutation, that is we observed a larger effect for the charge reversal compared to the charge neutralization mutation (Figure 4E). However, in addition to direct effects of K205 on nucleotide binding, we also observed a shift in D for both mutations (Figure 4E).
(§2) Currents were measured as described above.
(§3) ANAP bleaching was corrected as for the unroofed binding experiments with Equation 1 (Figure 2—figure supplement 3A). Due to the lower signal-to-noise ratio for PCF compared to the unroofed membranes, we performed experiments from both high-to-low and low-to-high TNP-ATP concentrations to minimise artifacts from our bleaching corrections.

Kir6.2*-GFP + SUR-K205E = target: T2, Kir6.2*-GFP + SUR-K205E (Homo sapiens, UniProt Q14654); experiment: as above; assay type: binding; conditions: excised patches (PCF), Hill fit
T2 construct: ANAP labelling is specific and only full-length Kir6.2 is expressed at the cell membrane; expressed in transfected cells; host or cells: HEK-293T
Excerpt: as §1, §2, §3

T1 sequence (Q14654 whole entry, stated change not applied): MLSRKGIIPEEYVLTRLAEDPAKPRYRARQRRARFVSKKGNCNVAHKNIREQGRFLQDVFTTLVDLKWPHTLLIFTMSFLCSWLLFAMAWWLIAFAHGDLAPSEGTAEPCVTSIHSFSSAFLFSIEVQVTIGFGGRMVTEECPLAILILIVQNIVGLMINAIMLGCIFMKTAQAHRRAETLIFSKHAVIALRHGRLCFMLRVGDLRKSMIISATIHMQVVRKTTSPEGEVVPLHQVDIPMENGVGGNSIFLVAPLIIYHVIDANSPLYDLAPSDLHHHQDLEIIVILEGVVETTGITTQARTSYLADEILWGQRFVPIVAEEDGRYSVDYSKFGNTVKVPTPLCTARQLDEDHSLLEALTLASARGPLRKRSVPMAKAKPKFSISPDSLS
T1 sequence (Q09428 whole entry K205A partner): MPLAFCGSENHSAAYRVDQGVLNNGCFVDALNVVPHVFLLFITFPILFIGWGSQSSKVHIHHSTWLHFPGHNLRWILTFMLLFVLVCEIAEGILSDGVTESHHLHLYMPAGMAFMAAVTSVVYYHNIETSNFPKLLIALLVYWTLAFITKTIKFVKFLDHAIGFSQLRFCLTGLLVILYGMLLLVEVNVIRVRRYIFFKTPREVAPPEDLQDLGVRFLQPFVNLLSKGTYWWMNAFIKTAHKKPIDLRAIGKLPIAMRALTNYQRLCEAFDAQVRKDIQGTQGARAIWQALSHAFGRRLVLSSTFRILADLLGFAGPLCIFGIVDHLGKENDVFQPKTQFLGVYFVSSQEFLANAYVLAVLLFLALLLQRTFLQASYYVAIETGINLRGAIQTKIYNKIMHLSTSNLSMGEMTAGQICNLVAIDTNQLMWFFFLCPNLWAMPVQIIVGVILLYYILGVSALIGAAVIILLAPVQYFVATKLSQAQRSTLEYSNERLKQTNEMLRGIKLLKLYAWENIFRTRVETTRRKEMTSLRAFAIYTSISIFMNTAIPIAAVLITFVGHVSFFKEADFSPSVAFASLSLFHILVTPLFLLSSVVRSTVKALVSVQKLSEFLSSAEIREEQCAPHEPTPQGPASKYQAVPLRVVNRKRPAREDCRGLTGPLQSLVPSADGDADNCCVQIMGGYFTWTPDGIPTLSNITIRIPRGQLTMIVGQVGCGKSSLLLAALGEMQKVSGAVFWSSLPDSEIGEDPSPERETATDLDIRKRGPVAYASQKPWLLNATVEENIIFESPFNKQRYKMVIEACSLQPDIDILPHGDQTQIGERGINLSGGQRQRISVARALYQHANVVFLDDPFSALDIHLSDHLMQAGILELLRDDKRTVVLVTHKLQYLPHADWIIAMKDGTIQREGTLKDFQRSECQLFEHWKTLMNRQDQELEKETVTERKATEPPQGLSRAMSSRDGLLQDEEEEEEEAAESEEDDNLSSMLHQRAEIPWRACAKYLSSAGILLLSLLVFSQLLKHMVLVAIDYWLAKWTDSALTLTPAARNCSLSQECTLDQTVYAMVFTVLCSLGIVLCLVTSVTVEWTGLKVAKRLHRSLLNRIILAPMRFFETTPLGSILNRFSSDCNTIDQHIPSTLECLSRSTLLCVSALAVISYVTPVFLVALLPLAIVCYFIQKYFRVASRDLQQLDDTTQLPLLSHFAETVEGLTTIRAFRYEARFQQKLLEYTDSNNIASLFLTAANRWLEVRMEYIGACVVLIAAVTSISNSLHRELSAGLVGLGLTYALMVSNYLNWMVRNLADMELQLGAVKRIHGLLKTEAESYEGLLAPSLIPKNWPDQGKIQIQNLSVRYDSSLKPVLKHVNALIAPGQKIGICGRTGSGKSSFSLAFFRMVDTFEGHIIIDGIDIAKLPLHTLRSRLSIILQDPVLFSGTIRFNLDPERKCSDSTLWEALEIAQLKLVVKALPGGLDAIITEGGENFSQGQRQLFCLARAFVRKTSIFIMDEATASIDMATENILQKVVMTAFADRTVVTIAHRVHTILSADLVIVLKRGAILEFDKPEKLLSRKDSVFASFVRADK
T2 sequence (Q14654 whole entry, stated change not applied): as the sequence (Q14654 whole entry, stated change not applied) above
T2 sequence (Q09428 whole entry K205E partner): as the sequence (Q09428 whole entry K205A partner) above, with A205E counted along it

Question: For `Nc1ncnc2c1ncn2[C@@H]1O[C@H](COP(=O)(O)OP(=O)(O)OP(=O)(O)O)[C@H]2OC3(O[C@H]21)C([N+](=O)[O-])=CC(=[N+]([O-])[O-])C=C3[N+](=O)[O-]` (stereo partly drawn) [TNP-ATP, trinitrophenyl-ATP], which “h (Hill coefficient) fluorescence quenching” value (Kir6.2*-GFP + SUR-K205A) is on record?
Answer: 0.73

Question: And the Emax (Kir6.2*-GFP + SUR-K205A; fraction)?
Answer: 100%

Question: And the EC50 (Kir6.2*-GFP + SUR-K205A; n = 9)?
Answer: 204 µM

Question: What about the “h (Hill coefficient) fluorescence quenching” value (Kir6.2*-GFP + SUR-K205E) of the same molecule?
Answer: 0.74

Question: What about the Emax (Kir6.2*-GFP + SUR-K205E; fraction) of the same molecule?
Answer: 100%

Question: What about the EC50 (Kir6.2*-GFP + SUR-K205E; n = 9) of the same molecule?
Answer: 427 µM
